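Assay format: 96-well plates, 48-hour exposure. GI50 = concentration required for 50% inhibition of growth.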 Active and inactive are the calls of the source. No stated cut-off is given here; in the data, active = GI50 up to about 1.1 µM and inactive = higher.
Experiments:
Test in all cases: growth of human tumour cells (NCI), 48 h
786-0 = test system: 786-0
A498 = test system: A498
A549 = test system: A549
ACHN = test system: ACHN
BT-549 = test system: BT-549
CAKI-1 = test system: CAKI-1
CCRF-CEM = test system: CCRF-CEM
COLO 205 = test system: COLO 205
DU-145 = test system: DU-145
EKVX = test system: EKVX
HCT-116 = test system: HCT-116
HCT-15 = test system: HCT-15
HL-60 = test system: HL-60
HOP-62 = test system: HOP-62
HOP-92 = test system: HOP-92
HT-29 = test system: HT-29
Hs-578T = test system: Hs-578T
IGROV-1 = test system: IGROV-1
K562 = test system: K562
KM12 = test system: KM12
LOX IMVI = test system: LOX IMVI
M14 = test system: M14
MCF7 = test system: MCF7
MDA-MB-231 = test system: MDA-MB-231
MDA-MB-435 = test system: MDA-MB-435
MDA-N = test system: MDA-N
MOLT-4 = test system: MOLT-4
Malme-3M = test system: Malme-3M
NCI-H23 = test system: NCI-H23
NCI-H460 = test system: NCI-H460
NCI-H522 = test system: NCI-H522
NCI/ADR-RES = test system: NCI/ADR-RES
OVCAR-3 = test system: OVCAR-3
OVCAR-4 = test system: OVCAR-4
OVCAR-5 = test system: OVCAR-5
OVCAR-8 = test system: OVCAR-8
PC-3 = test system: PC-3
RPMI-8226 = test system: RPMI-8226
RXF 393 = test system: RXF 393
SF-268 = test system: SF-268
SF-295 = test system: SF-295
SF-539 = test system: SF-539
SK-MEL-28 = test system: SK-MEL-28
SK-MEL-2 = test system: SK-MEL-2
SK-MEL-5 = test system: SK-MEL-5
SK-OV-3 = test system: SK-OV-3
SN12C = test system: SN12C
SNB-19 = test system: SNB-19
SR = test system: SR
SW-620 = test system: SW-620
T47D = test system: T47D
TK-10 = test system: TK-10
U-251 = test system: U-251
UACC-257 = test system: UACC-257
UACC-62 = test system: UACC-62
UO-31 = test system: UO-31

For `CCOC(=O)Nc1ccc(S(=O)(=O)Nc2ccc(Br)cc2)cc1`, which GI50 (786-0) is on record?
The GI50 was 36.8 µM (inactive).

And the GI50 (A498)?
The GI50 was 13.6 µM (inactive).

And the GI50 (A549)?
Its GI50 is 60.1 µM (inactive).

What about the GI50 (ACHN) of the same molecule?
Its GI50 is 30.1 µM (inactive).

What about the GI50 (BT-549) of the same molecule?
The GI50 was 35.1 µM (inactive).

What about the GI50 (CAKI-1) of the same molecule?
The GI50 was 35.8 µM (inactive).

What about the GI50 (CCRF-CEM) of the same molecule?
The GI50 was 46.8 µM (inactive).

And the GI50 (COLO 205)?
The GI50 was 14.6 µM (inactive).

What about the GI50 (DU-145) of the same molecule?
Its GI50 is 65.5 µM (inactive).

And the GI50 (EKVX)?
The GI50 was 29.2 µM (inactive).

What about the GI50 (HCT-116) of the same molecule?
The GI50 was 39.7 µM (inactive).

And the GI50 (HCT-15)?
Its GI50 is 61.5 µM.

And the GI50 (HL-60)?
The GI50 was 25.6 µM (inactive).

And the GI50 (HOP-62)?
The GI50 was 33.5 µM (inactive).

And the GI50 (HOP-92)?
Its GI50 is 43.7 µM (inactive).

And the GI50 (HT-29)?
Its GI50 is 33.2 µM (inactive).

What about the GI50 (Hs-578T) of the same molecule?
The GI50 was 30.6 µM (inactive).

What about the GI50 (IGROV-1) of the same molecule?
Its GI50 is 35 µM (inactive).

What about the GI50 (K562) of the same molecule?
Its GI50 is 17.3 µM (inactive).

What about the GI50 (KM12) of the same molecule?
The GI50 was 37.3 µM (inactive).

And the GI50 (LOX IMVI)?
The GI50 was 26.4 µM (inactive).

What about the GI50 (M14) of the same molecule?
The GI50 was 49.3 µM (inactive).

And the GI50 (MCF7)?
The GI50 was 23.3 µM (inactive).

What about the GI50 (MDA-MB-231) of the same molecule?
The GI50 was 29.7 µM (inactive).

What about the GI50 (MDA-MB-435) of the same molecule?
Its GI50 is 43.5 µM (inactive).

What about the GI50 (MDA-N) of the same molecule?
The GI50 was 37 µM (inactive).

What about the GI50 (MOLT-4) of the same molecule?
The GI50 was 26.9 µM (inactive).

What about the GI50 (Malme-3M) of the same molecule?
Its GI50 is 74 µM (inactive).

What about the GI50 (NCI-H23) of the same molecule?
The GI50 was 31 µM (inactive).

And the GI50 (NCI-H460)?
The GI50 was 23.2 µM (inactive).

And the GI50 (NCI-H522)?
Its GI50 is 29 µM (inactive).

What about the GI50 (NCI/ADR-RES) of the same molecule?
The GI50 was 34.4 µM (inactive).

And the GI50 (OVCAR-3)?
The GI50 was 36.3 µM (inactive).

What about the GI50 (OVCAR-4) of the same molecule?
Its GI50 is 13.6 µM (inactive).

What about the GI50 (OVCAR-5) of the same molecule?
Its GI50 is 58.1 µM (inactive).

What about the GI50 (OVCAR-8) of the same molecule?
Its GI50 is 23.3 µM (inactive).

And the GI50 (PC-3)?
Its GI50 is 41 µM (inactive).

What about the GI50 (RPMI-8226) of the same molecule?
The GI50 was 25.1 µM (inactive).

And the GI50 (RXF 393)?
Its GI50 is 22 µM (inactive).

And the GI50 (SF-268)?
The GI50 was 28.2 µM (inactive).

And the GI50 (SF-295)?
The GI50 was 30.9 µM (inactive).

And the GI50 (SF-539)?
Its GI50 is 17.2 µM (inactive).

And the GI50 (SK-MEL-28)?
Its GI50 is 39.8 µM (inactive).

What about the GI50 (SK-MEL-2) of the same molecule?
The GI50 was 47.1 µM (inactive).

And the GI50 (SK-MEL-5)?
The GI50 was 18.5 µM (inactive).

What about the GI50 (SK-OV-3) of the same molecule?
The GI50 was 25.9 µM (inactive).

What about the GI50 (SN12C) of the same molecule?
Its GI50 is 59.8 µM (inactive).

What about the GI50 (SNB-19) of the same molecule?
The GI50 was 73.5 µM (inactive).

What about the GI50 (SR) of the same molecule?
Its GI50 is 18.2 µM (inactive).

What about the GI50 (SW-620) of the same molecule?
Its GI50 is 24.3 µM (inactive).

What about the GI50 (T47D) of the same molecule?
The GI50 was 31.5 µM (inactive).

What about the GI50 (TK-10) of the same molecule?
The GI50 was 43.1 µM (inactive).

And the GI50 (U-251)?
Its GI50 is 43 µM (inactive).

What about the GI50 (UACC-257) of the same molecule?
Its GI50 is 61.4 µM (inactive).

And the GI50 (UACC-62)?
Its GI50 is 22.4 µM (inactive).

And the GI50 (UO-31)?
The GI50 was 34.8 µM (inactive).

Reference: ChEMBL document CHEMBL1201862, “PubChem BioAssay data set” (2004)
